Test results taken from US7829309B1, “Cell culture performance with betaine” (Immunex Corporation, priority 2002, dated 2010).
Entries after “also recorded” stand apart in the source; their conditions may differ.

Assays:
cell cultures = conditions: physiological osmolality, 292 mOsm/kg; cited from earlier work
[1] = test system: TNFR-Fc producing cells (CHO cell lines); experiment: Betaine in 1 L bioreactor cultures of TNFR-Fc producing CHO cells at production osmolality; type: cell-based, Chinese hamster
Procedure: TNFR-Fc production in some CHO cell lines results in greater quantities of recombinant protein product but with lower viability than other cell lines during the final days of the run. The decreased viability correlates with increased protease activity in the culture supernatant, a result of dying cells releasing proteases into the media, which decreases stability of the final purified product. The current study was performed to determine if betaine could prolong viability at production osmolality (250-280 mOsm initial value).
The bioreactors used for this study were stirred vessels with a 1 liter working volume, with temperature, pH and dO2 control. The medium was serum-free with bicarbonate, IGF-1 (LongR3; GroPep, Australia), intralipids and peptones added. Betaine was added to 1 L bioreactor cultures of TNFR-Fc producing cells at 0, 10, 20, 30, and 40 mM with the osmolality of each culture adjusted to 270 to 280 mOsm with an appropriate amount of NaCl. The reactors were induced to express recombinant protein on day 2 by reducing the temperature and adding butyrate to 0.5 mM. Daily samples were taken for analysis of metabolic and productivity parameters.
The ability of induced cells to produce TNFR:Fc was not decreased in the presence of betaine.

SMILES: C[N+](C)(C)CC(=O)O [betaine]
- effect on cell culture growth or maximum viable cell concentration (cell cultures): no effect
- cell viability (viable cells as percentage of living cells over total cells, trypan blue exclusion; VCD profiles) ([1]; betaine 0, 10, 20, 30, 40 mM, serum-free medium, osmolality 270 to 280 mOsm, most noticeable after day 5 (FIG. 1)): increases cell viability; also recorded: positive effect on cell viability
- concentration dependence of the viability effect ([1]; betaine 10-40 mM, higher concentrations than 30 mM did not increase viability as much): titration effect up to 30 mM
- ability of induced cells to produce TNFR:Fc ([1]; in the presence of betaine, induced on day 2 by reduced temperature and 0.5 mM butyrate): not decreased
- increase in percentage of secreted recombinant polypeptide having the desired conformation (native conformation and dimerized) ([1]; in the presence of betaine, measured by hydrophobic interaction chromatography (HIC) against known controls): 17.7%
